The values that follow are results of earlier work, collected in patent US12661367B2, “Streptomyces spororaveus strain and a new antibiotics against bacteria and fungi” (National Taipei University of Technology, priority 2022, dated 2026).

The conditions of series [1]: orally used.

Turning to `C[C@@H]1C/C=C/C=C/C=C/C=C/[C@H](O[C@@H]2O[C@H](C)[C@@H](O)[C@H](N)[C@@H]2O)C[C@@H]2O[C@](O)(C[C@@H](O)C[C@H]3O[C@@H]3/C=C/C(=O)O1)C[C@H](O)[C@H]2C(=O)O` [natamycin], the solubility in water entry is reported as “nearly insoluble in water”. In addition, the bioavailability result in series [1] is “low bioavailability”.
